Values quoted from earlier work as cited in patent US20260335309A1, “METHODS OF TREATING UVEAL MELANOMA” (IDEAYA BIOSCIENCES, INC., priority 2022, published 2026).

System: uveal melanoma cells harboring GNAQ mutations
Details: by targeting PKC/ERK1/2 and PKC/NF-xB pathways; X. Wu et al., Mol. Cancer Ther. 2012

SMILES: CN1CCN(c2nc(C3=C(c4c[nH]c5ccccc45)C(=O)NC3=O)c3ccccc3n2)CC1 [sotrastaurin]
- inhibition of growth of uveal melanoma cells harboring GNAQ mutations: selectively inhibit the growth of uveal melanoma cells harboring GNAQ mutations
